Experimental data: article PMC10643470, “Knockout or inhibition of USP30 protects dopaminergic neurons in a Parkinson’s disease mouse model” (Nature Communications, 2023)
Values joined by “and” are separate entries in the source; they are usually repeats but may differ in a detail not shown here. Equal values may be shown once.

How the values were obtained:
USP14 = USP14 (Homo sapiens, UniProt P54578); assay: DUB/cathepsin selectivity biochemical assay
OTUB1/UBCH5B = OTUB1/UBCH5B (Homo sapiens, UniProt Q96FW1); assay: DUB/cathepsin selectivity biochemical assay
[1] = system: AAV-A53T-SNCA PD mouse model; assay: TH+ neuron counting in SNpc, AAV-A53T-SNCA mouse model (compound study); type: in vivo
Description: (§1) For the compound study, the fixed, cryoprotected and frozen midbrain samples were sectioned as coronal sections at 100 µm intervals through SNpc and ventral tegmental area (VTA) and mounted on glass slides. Sectioning was started at −2.6 mm from bregma and continued to −3.7 mm from bregma in the AP axis (coordinates based on Franklin & Paxinos: The Mouse Brain in Stereotaxic Coordinates). For the immunostaining, the sections were stained with anti-TH following permeabilization. The stained sections were scanned with the Olympus VS120 slide scanner and analyzed with a VIS-Visiopharm Integrator System (Visiopharm, Denmark) by a blinded data analyst. All cells of interest with visible nuclei were labeled manually and counted using an APP (Analysis Protocol Package), scaled by section thickness and sectioning interval to estimate the total cell population in the SNpc. For immunostaining of Ser129 αSyn phosphorylation, TSA amplification was used with primary antibody ab51253 (Abcam). Blinded analysis was used, and positive cells per area were determined. For dual IF IHC of Iba1 (WAKO) and GFAP (ab4674 – Abcam), the stained sections were scanned and analyzed by a blinded data analyst. Analysis determines the percentage of positive staining area [%area = (stained area/region area) * (100)]. To calculate % of stained area, the same threshold value was applied to all sections with the same antibody staining. All pixels above the threshold value were considered positive. All striatal densitometry and neuronal counting data for both KO and inhibitor studies were obtained by an investigator blinded to genotype and treatment.

USP34 CORE = biological target: T1, USP34 CORE (Homo sapiens, UniProt Q70CQ2); assay: DUB/cathepsin selectivity biochemical assay
T1 construct: USP34 CORE

MINDY3 = MINDY3 (Homo sapiens, UniProt Q9H8M7); assay: DUB/cathepsin selectivity biochemical assay
USP5 = USP5 (Homo sapiens, UniProt P45974); assay: DUB/cathepsin selectivity biochemical assay
USP22 = USP22 (Homo sapiens, UniProt Q9UPT9); assay: DUB/cathepsin selectivity biochemical assay
OTUD1 CD = biological target: T2, OTUD1 CD (Homo sapiens, UniProt Q5VV17); assay: DUB/cathepsin selectivity biochemical assay
T2 construct: OTUD1 CD

USP32 = USP32 (Homo sapiens, UniProt Q8NFA0); assay: DUB/cathepsin selectivity biochemical assay
USP19 = USP19 (Homo sapiens, UniProt O94966); assay: DUB/cathepsin selectivity biochemical assay
SENP1 CD = biological target: T3, SENP1 CD (Homo sapiens, UniProt Q9P0U3); assay: DUB/cathepsin selectivity biochemical assay
T3 construct: SENP1 CD

SENP2 CD = biological target: T4, SENP2 CD (Homo sapiens, UniProt Q9HC62); assay: DUB/cathepsin selectivity biochemical assay
T4 construct: SENP2 CD

USP12/UAF1 = USP12/UAF1 (Homo sapiens, UniProt O75317); assay: DUB/cathepsin selectivity biochemical assay
[2] = system: AAV-A53T-SNCA PD mouse model; assay: Iba1/GFAP immunostaining in SNpc, AAV-A53T-SNCA mouse model (compound study); type: in vivo; design: key to Figure S7a immunostaining, Left / Figure S7a immunostaining, Right: % stained area = stained area / region area × 100
Description: as §1

USP4 = USP4 (Homo sapiens, UniProt Q13107); assay: DUB/cathepsin selectivity biochemical assay
USP24 = USP24 (Homo sapiens, UniProt Q9UPU5); assay: DUB/cathepsin selectivity biochemical assay
OTUD6A = OTUD6A (Homo sapiens, UniProt Q7L8S5); assay: DUB/cathepsin selectivity biochemical assay
Cathepsin L = Cathepsin L (Homo sapiens, UniProt P07711); assay: DUB/cathepsin selectivity biochemical assay; conditions: Supplementary Fig. 6a; read-out: Selectivity vs Cathepsins (IC50), Cath L
[3] = Mouse exploratory toxicology; type: in vivo; conditions: two weeks of dosing, dose levels up to 300 mg/kg/day
mouse USP30 = biological target: T5, mouse USP30 (Mus musculus, UniProt Q3UN04); assay: USP30 biochemical fluorescence polarization assay (mouse); conditions: read-out: Mouse USP30 FP assay (IC50)
T5 construct: Mouse USP30(57-517) (Boston Biochem, #E-582M); purchased Boston Biochem E-582M
Method: USP30 enzyme was diluted in reaction buffer (40 mM Tris HCl, pH 7.5, 0.005% Tween 20, 0.5 mg/ml BSA, 5 mM BME) to achieve a final concentration of 8 nM for human USP30 and 10 nM for mouse USP30, the compound was added and incubated for 30 min at room temp then reactions initiated by addition of Ub-Lys-TAMRA (final conc of 50 nM). Fluorescence was measured immediately after the addition of substrate and following a 2 h incubation on Pherastar Plus or FSX with λ Excitation 540 nm and λ Emission 590 nm.

USP28 = USP28 (Homo sapiens, UniProt Q96RU2); assay: DUB/cathepsin selectivity biochemical assay
USP7 = USP7 (Homo sapiens, UniProt Q93009); assay: DUB/cathepsin selectivity biochemical assay
VCPIP FL = biological target: T6, VCPIP FL (Homo sapiens, UniProt Q96JH7); assay: DUB/cathepsin selectivity biochemical assay
T6 construct: VCPIP FL

USP36 CD = biological target: T7, USP36 CD (Homo sapiens, UniProt Q9P275); assay: DUB/cathepsin selectivity biochemical assay
T7 construct: USP36 CD

OTUD3 CD = biological target: T8, OTUD3 CD (Homo sapiens, UniProt Q5T2D3); assay: DUB/cathepsin selectivity biochemical assay
T8 construct: OTUD3 CD

USPL1 = USPL1 (Homo sapiens, UniProt Q5W0Q7); assay: DUB/cathepsin selectivity biochemical assay
USP48 = USP48 (Homo sapiens, UniProt Q86UV5); assay: DUB/cathepsin selectivity biochemical assay

T1 sequence (Q70CQ2 1894-2239 limits assumed): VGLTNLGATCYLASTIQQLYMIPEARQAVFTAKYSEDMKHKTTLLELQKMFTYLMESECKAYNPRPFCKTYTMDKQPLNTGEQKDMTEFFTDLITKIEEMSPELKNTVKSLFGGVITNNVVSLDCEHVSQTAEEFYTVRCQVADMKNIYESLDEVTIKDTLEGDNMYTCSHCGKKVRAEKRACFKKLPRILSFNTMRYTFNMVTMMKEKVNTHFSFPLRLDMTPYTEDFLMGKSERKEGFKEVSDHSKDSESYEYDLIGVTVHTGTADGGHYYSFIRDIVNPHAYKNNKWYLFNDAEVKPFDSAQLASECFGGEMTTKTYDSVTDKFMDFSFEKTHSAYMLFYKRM
Chain of USP24 (Q9UPU5 whole entry, species assumed): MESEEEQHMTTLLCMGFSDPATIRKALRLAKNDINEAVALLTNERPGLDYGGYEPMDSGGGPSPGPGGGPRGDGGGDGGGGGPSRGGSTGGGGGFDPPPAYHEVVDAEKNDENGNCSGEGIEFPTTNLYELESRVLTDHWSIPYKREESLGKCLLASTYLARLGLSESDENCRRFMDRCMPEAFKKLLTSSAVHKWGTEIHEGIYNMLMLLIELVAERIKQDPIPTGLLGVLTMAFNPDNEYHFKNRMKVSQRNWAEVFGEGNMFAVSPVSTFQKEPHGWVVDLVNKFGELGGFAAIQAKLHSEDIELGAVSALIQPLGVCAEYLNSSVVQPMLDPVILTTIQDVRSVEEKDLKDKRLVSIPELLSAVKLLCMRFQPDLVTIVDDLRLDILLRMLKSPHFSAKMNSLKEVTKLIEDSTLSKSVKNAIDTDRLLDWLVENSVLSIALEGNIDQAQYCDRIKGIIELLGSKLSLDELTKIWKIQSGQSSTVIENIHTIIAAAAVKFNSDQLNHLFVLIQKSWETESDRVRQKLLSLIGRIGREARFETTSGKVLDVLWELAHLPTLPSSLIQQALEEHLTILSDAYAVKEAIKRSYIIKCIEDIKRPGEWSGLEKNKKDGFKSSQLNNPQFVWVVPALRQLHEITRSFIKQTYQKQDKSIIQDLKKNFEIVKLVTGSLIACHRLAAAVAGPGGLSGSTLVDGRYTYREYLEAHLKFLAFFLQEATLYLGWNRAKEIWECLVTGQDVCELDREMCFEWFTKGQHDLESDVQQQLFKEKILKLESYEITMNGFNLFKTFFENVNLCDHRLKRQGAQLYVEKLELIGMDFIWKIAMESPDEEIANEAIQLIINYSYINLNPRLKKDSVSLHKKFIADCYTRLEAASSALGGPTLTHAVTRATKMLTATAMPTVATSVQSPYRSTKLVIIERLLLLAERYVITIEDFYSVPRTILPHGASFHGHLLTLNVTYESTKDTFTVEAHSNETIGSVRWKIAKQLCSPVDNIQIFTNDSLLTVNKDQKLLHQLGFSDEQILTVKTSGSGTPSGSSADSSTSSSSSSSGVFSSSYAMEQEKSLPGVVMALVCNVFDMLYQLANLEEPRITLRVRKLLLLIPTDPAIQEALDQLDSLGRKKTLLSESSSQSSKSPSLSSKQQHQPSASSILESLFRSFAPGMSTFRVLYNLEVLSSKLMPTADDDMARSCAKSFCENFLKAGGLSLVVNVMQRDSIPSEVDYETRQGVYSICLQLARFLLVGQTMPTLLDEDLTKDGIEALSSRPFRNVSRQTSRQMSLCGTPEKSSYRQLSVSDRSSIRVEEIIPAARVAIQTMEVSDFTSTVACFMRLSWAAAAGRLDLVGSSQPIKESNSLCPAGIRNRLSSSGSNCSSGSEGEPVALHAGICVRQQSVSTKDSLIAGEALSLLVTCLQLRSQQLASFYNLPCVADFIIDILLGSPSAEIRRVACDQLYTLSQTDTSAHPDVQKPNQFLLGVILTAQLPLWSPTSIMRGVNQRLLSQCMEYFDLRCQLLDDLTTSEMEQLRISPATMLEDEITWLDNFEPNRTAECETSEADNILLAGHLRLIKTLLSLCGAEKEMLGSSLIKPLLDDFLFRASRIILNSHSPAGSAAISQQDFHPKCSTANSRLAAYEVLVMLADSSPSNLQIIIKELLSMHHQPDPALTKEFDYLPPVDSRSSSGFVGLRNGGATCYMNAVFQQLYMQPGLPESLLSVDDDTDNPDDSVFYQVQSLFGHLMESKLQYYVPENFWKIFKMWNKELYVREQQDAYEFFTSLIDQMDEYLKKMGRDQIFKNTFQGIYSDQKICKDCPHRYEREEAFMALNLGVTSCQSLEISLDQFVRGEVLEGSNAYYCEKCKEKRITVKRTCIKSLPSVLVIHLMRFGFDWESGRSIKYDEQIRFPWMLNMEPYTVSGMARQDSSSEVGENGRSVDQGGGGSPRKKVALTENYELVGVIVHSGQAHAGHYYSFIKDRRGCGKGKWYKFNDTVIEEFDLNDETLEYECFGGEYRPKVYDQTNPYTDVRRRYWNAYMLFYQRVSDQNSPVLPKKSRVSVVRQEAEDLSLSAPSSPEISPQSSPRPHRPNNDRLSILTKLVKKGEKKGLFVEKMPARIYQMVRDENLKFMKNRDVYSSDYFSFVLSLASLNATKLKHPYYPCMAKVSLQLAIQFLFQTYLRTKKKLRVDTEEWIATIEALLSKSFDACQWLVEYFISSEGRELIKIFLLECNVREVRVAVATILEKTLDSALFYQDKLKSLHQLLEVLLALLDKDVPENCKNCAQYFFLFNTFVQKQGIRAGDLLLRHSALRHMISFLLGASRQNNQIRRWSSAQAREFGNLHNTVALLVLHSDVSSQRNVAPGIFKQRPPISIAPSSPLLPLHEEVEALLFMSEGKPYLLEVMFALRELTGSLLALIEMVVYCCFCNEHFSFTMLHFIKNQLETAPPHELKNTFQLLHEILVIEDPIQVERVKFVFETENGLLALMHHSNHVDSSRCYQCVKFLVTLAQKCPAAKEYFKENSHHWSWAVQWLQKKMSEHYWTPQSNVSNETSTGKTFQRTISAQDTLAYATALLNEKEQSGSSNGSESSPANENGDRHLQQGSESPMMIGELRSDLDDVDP
Chain of USPL1 (Q5W0Q7 whole entry, species assumed): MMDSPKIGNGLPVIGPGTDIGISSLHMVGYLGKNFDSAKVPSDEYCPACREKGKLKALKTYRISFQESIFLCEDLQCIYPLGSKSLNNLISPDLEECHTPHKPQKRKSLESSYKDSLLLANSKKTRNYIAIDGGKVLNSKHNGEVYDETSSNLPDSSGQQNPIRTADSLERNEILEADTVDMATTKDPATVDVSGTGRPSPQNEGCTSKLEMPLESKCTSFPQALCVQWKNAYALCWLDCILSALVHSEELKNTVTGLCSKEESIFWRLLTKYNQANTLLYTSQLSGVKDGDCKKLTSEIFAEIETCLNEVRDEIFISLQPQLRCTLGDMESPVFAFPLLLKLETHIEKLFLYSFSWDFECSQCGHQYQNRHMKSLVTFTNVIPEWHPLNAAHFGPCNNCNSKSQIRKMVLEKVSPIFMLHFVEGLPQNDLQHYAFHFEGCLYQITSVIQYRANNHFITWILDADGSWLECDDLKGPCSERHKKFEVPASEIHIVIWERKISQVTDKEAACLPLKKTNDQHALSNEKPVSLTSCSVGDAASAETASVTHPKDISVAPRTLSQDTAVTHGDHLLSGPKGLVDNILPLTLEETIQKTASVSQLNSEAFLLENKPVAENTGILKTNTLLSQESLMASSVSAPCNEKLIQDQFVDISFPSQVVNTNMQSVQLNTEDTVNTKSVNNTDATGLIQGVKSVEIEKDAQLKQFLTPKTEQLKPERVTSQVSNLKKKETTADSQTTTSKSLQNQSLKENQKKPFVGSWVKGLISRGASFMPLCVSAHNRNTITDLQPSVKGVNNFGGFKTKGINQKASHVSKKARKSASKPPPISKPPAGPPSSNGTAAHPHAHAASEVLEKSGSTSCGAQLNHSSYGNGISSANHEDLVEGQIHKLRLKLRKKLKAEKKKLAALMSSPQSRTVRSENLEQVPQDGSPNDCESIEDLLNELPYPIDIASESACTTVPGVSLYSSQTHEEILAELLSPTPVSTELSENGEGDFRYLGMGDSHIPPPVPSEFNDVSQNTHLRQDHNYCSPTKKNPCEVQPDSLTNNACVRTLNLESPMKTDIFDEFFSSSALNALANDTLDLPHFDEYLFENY
T2 sequence (Q5VV17 309-438 limits assumed): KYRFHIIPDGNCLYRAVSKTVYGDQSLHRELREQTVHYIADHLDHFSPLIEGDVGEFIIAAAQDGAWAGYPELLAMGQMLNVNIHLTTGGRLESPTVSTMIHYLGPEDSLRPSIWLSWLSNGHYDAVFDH
Chain of USP22 (Q9UPT9 whole entry, species assumed): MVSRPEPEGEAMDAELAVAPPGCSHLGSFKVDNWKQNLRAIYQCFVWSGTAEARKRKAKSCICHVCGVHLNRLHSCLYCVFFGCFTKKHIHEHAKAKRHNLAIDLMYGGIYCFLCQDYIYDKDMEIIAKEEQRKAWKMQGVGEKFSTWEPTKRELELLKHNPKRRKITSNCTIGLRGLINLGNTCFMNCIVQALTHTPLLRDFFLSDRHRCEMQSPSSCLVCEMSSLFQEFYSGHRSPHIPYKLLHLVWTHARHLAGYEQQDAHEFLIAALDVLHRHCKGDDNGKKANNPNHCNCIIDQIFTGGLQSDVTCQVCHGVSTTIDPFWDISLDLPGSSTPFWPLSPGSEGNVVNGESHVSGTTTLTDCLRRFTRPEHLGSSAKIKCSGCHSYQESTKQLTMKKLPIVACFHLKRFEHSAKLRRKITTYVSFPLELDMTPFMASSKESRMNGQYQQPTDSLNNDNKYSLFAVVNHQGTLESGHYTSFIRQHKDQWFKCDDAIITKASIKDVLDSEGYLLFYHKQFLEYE
Chain of Cathepsin L (P07711 114-333, species assumed): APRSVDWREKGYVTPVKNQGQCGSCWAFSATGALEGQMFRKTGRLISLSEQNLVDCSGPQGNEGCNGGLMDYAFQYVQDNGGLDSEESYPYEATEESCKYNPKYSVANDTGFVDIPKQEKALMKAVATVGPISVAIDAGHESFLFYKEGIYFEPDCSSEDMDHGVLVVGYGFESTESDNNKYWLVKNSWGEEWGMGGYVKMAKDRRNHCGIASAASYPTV
T8 sequence (Q5T2D3 65-189 limits assumed): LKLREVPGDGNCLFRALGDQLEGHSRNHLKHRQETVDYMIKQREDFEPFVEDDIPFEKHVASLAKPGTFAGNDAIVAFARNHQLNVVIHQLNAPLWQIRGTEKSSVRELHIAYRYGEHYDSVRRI

Question: What does the source list for `C[C@@H]1[C@H]2CCN(C(=O)c3ncc(-c4ccnc(C#N)c4)o3)[C@H]2CN1C#N` [MTX115325]?
Answer: IC50 (USP14): > 300 µM; IC50 (OTUB1/UBCH5B): > 300 µM; Percentage of ipsilateral vs contralateral TH+ neurons ([1]; 50 mg/kg BID oral, 10 weeks, vehicle 61.7%, p 0.029): 89.08%; Percentage of ipsilateral vs contralateral TH+ neurons in SNpc ([1]; AAV-A53T-SNCA mice, individual animals): 43.6893 and 97.2222 and 27.4336 and 125.243 and 125 and 105.063 and 101.25 and 55.1724 and 95.8333 and 93.9394 and 113.861 and 96.0526 and 68.5315 and 98.8095; Beneficial effects at lower doses in a subsequent study ([1]; lower doses, doses not given, peer review reply): not show beneficial effects; IC50 (USP34 CORE): > 300 µM; IC50 (MINDY3): > 300 µM; IC50 (USP5): > 300 µM; IC50 (USP22): 147 µM; IC50 (OTUD1 CD): > 300 µM; IC50 (USP32): 120 µM; IC50 (USP19): 278 µM; IC50 (SENP1 CD): > 300 µM; IC50 (SENP2 CD): > 300 µM; IC50 (USP12/UAF1): > 300 µM; Total GFAP stained area ([2]; 50 mg/kg, SNpc): significantly decreased; Figure S7b immunostaining quantification, Left ([2]; AAV-A53T + MTX115325 (50 mg/kg), Group 5, Left hemisphere, individual animal values (Animal ID in r3)): 1.3107 and 1.822 and 1.54 and 1.4872 and 0.5058 and 0.5702 and 1.26 and 0.5434 and 3.27 and 0.3697 and 0.5693 and 0.3721 and 1.3682; Figure S7b immunostaining quantification, Right ([2]; AAV-A53T + MTX115325 (50 mg/kg), Group 5, Right hemisphere, individual animal values (Animal ID in r3)): 5.052 and 9.289 and 2.625 and 1.026 and 0.413 and 0.7794 and 1.305 and 0.7197 and 2.306 and 0.4784 and 1.89 and 0.7362 and 2.027; Figure S7a immunostaining, Left ([2]; Group 5: AAV-A53T + MTX115325 (50 mg/kg), Left side, individual animals): 7.176 and 11.087 and 12.7517 and 7.21 and 7.515 and 4.054 and 9.929 and 4.978 and 8.49 and 4.199 and 4.24 and 6.399 and 9.051; Figure S7a immunostaining, Right ([2]; Group 5: AAV-A53T + MTX115325 (50 mg/kg), Right side, individual animals): 24.0437 and 23.3177 and 16.4732 and 6.609 and 8.915 and 4.627 and 11.7034 and 7.051 and 10.4594 and 5.626 and 7.142 and 6.872 and 11.3579; IC50 (USP4): > 300 µM; IC50 (USP24): > 300 µM; IC50 (OTUD6A): > 300 µM; IC50 (Cathepsin L): 42.1 µM; Tolerability (clinical observations, pathology) [3]: well tolerated with no adverse clinical observations or pathology findings; IC50 (mouse USP30): 0.013 µM; IC50 (USP28): 106 µM; IC50 (USP7): > 300 µM; IC50 (VCPIP FL): > 300 µM; IC50 (USP36 CD): 157 µM; IC50 (OTUD3 CD): > 300 µM; IC50 (USPL1): > 300 µM; IC50 (USP48): > 300 µM
